Values joined by “and” are separate entries in the source; they are usually repeats but may differ in a detail not shown here. Equal entries are not always repeated.
Experiments:
[1] = molecular target: purified E. Coli-derived β-glucuronidase (Escherichia coli, UniProt P05804); test: Susceptibility of 2-MEG to metabolism by E. Coli β-glucuronidase (HPLC); format: in vitro ADME; settings: incubation with E. Coli β-glucuronidase for 16 hours in Tyrodes buffer
Procedure: (§2) At the end of these incubation periods, extraction was carried out by using 100 μl of reaction mixture with 200 μl of acetontrile (ACN) followed by the addition of 5 μl 2M HCL, vortexing and centrifugation at 1500 g (ambient temperature). Samples of enzyme incubates or quality control incubates were then chilled at −20° C. for at least 10 min, prior to removal of 120 μl of the upper (ACN) phase which is added to 120 μl distilled H2O. One hundred μl of this extract was injected into a Hewlett Packard Series 1050 HPLC fitted with a C18 analytical column (Hypersil ODS 3 μM, 4.6×150 mm) guarded by a pre column (Alltech Hypersil ODS 3 μM; 4.6×7.6 mm) and metabolites were detected with a Hewlett Packard 1046A fluorescence detector (I excitation 270 nm, emission, 320 nm). Metabolites were separated in a mobile phase of ACN buffer of 40:60 (buffer comprised 20 mM NaH2 PO4, 0.02% orthophosphoric acid, pH 3.1–3.2) at a flow rate of 0.7 ml/min. for the first 4 min with a linear gradient to a mobile phase of ACN: buffer (76:24) at 4.5 min. which was maintained for the remainder of the separation (10 min).

[2] = system: Human Airway Smooth Muscle cells; test: Human airway smooth muscle cell number; format: cell-based; settings: compound 10 μM
Text: (§1) Human airway fibroblasts were obtained from volunteers in a follow-up of the Melbourne Epidemiological Survey of Childhood Asthma (MESCA) (Oswald et al., 1994) initially recruited at age 7 in 1965 and now 42 years old. Volunteers underwent bronchial biopsy which provided tissue samples of epithelium and mucosa of approximately 2 mm^3. These specimens were dissected to remove the epithelium and placed in plastic culture plates. Fibroblasts grew by explant culture over a six week period when maintained according to previously described methods (Zhang et al., 1996). Cells were seeded at subconfluent densities onto six cell plates and after 72 hours were rendered quiescent by serum deprivation. Twenty four hours after serum removal, cells were exposed to thrombin (0.3 U/ml) together with a serum-free medium supplement containing insulin, transferrin and selenium. Cells were harvested by incubation with Trypsin (0.5% w/v) for 10 min. or until a single cell suspension was produced. Cell numbers were then determined using a haemocytometer.
Smooth muscle cells were obtained from airways resected from lung transplant recipients and cultured as previously described in detail (Fernandes et al., 1999). Cell numbers were determined in experiments of the same design as those described for human airway fibroblasts with the additional stimulus of 1% (v/v) fetal calf serum (FCS) being evaluated. In addition, [^3H]-thymidine incorporation was determined between 24 and 28 hours after the addition of thrombin to determine DNA synthesis (Fernandes et al. 1999).

[3] = system: Airway smooth muscle cells; test: Shape change of cultured airway smooth muscle cells; format: cell-based, human; settings: 72 hours in culture, 5% FCS, 10 micro M
[4] = system: A549 cells; test: A549 cell DNA synthesis ([3H]-thymidine); format: cell-based; settings: 5% fetal calf serum, 10 micromolar, [3H]-thymidine 24 hours after addition
Procedure: A549 cells were maintained in DMEM containing 5% fetal calf serum and undergoing asynchronous proliferation. DNA synthesis was determined by the addition of [3H]-thymidine 24 hours after the addition of one of 2-methoxyestradiol, 6-oxo-2-methoxyestradiol and 2-methoxyestradiol-17β-D-glucuronide.

[5] = Text: The octanol:water partition co-efficient is a measure of the relative aqueous and lipid solubility of a compound.
[6] = incubation with rat renal homogenates for 5.5 hours in Tyrodes buffer
Procedure: as §2

[7] = molecular target: T1, estrogen receptor (rat uterine cytosol) (Rattus norvegicus, UniProt P06211)
T1 sequence (P06211 1-600): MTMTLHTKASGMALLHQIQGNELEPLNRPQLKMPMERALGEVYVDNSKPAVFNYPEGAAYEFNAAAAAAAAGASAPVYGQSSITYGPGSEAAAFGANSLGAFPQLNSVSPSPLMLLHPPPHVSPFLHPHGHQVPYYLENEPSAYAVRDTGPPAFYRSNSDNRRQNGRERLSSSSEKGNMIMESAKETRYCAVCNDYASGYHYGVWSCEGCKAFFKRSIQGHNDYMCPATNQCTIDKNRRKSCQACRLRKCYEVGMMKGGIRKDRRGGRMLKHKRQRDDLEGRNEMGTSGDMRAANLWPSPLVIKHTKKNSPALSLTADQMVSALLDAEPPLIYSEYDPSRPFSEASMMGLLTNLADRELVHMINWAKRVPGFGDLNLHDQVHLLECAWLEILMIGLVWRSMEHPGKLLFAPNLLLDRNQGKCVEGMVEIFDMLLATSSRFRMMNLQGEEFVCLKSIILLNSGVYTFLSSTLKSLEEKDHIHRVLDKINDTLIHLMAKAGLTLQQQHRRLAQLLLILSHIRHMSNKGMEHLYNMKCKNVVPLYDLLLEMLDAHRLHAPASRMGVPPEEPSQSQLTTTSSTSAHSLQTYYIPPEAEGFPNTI

[8] = system: Human airway fibroblasts; test: Human airway fibroblast cell number (haemocytometer); format: cell-based; settings: stimulus Thrombin (0.3 U/ml), compound 10 μM
Text: as §1

[9] = molecular target: T1, estrogen receptor (rat uterine cytosol); test: biochemical

purified E. Coli-derived β-glucuronidase, sequence (P05804 whole entry): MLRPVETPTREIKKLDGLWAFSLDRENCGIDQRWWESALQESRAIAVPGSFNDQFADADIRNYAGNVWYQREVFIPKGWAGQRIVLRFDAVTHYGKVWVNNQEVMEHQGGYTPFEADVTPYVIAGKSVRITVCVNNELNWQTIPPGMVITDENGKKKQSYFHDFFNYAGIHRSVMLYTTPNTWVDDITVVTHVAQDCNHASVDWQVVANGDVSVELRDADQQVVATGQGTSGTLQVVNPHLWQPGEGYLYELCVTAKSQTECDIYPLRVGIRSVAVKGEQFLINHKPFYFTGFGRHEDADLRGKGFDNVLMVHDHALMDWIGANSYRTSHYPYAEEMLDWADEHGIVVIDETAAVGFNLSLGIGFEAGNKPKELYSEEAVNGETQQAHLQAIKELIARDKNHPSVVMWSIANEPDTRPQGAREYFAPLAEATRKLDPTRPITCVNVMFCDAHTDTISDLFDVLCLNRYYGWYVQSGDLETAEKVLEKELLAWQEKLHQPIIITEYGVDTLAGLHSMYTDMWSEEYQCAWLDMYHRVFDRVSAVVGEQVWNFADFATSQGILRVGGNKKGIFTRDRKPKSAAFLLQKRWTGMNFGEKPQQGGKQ

| SMILES | conversion of 2-MEG to 2-MEO [1] | Cell Number (% control) ([2]; stimulus FCS (1%, v/v)) | Cell Number (% control) ([2]; stimulus Thrombin (0.3 U/ml)) | cell shape change [3] | effect on DNA synthesis [4] | octanol/water partition coefficient ([5]; 1-octanol/water, fluorescence spectroscopy) | aqueous solubility relative to 2-MEO ([5]; inferred from partition coefficients) | logP ([5]; octanol/water) | conversion of 2-MEG to 2-MEO [6] | affinity for estrogen receptors relative to 2-MEO (from logIC50 values) ([7]; rat uterine cytosol, [3H]estradiol displacement) | Cell Number (% control) [8] | displacement of [3H]estradiol at highest concentration ([7]; 10 μM displacer) | IC50 [9] |
| --- | --- | --- | --- | --- | --- | --- | --- | --- | --- | --- | --- | --- | --- |
| COc1cc2c(cc1O)CC[C@@H]1[C@@H]2CC[C@]2(C)[C@@H](O[C@@H]3O[C@H](C(=O)O)[C@@H](O)[C@H](O)[C@H]3O)CC[C@@H]12 [2-MEG, 2-Methoxyestradiol-17-b-D-glucopyranosiduronic acid] | ~20% | 47 ± 16, n = 5 % control | 29 ± 8, n = 12 % control | not detected | ineffective | 0.372 | approximately 25 times | −0.429 | ~6% | 1/50 | – | – | – |
| COc1cc2c(cc1O)CCC1C2CCC2(C)C(O)CCC12 (stereo not drawn) [2-MEO, 1,3,5(10)-estratriene-3,17βdiol 2 methyl ether, reference compound] | – | 25 ± 9, n = 5 % control | 14 ± 12, n = 10 % control | readily discernible shape change | reduce DNA synthesis significantly | – | – | – | – | – | 12±8 % control and 12 ± 8, n = 7 % control | incomplete response | ~0.1 µM |
| COc1cc2c(cc1O)C(=O)C[C@@H]1[C@@H]2CC[C@]2(C)[C@@H](O)CC[C@@H]12 [6-oxo-2-methoxyestradiol, 6-Oxo-2-methoxyestradiol] | – | – | – | – | reduce DNA synthesis significantly | – | – | – | – | – | – | – | – |
